Three compounds from patent publication US4835159A, “Ergoline esters useful as serotonin antagonists” (Eli Lilly and Company, priority 1988, dated 1989) can be followed below.

Structures can show the parent of a compound that is named as a salt. Where two headings read alike, the source gives them in different places. A value given as a limit tells only on which side of the number the result lay.

The experiment has as its target T1, 5HT2 receptors (Rattus norvegicus, UniProt P14842).
T1 construct: external jugular veins and thoracic aortas were dissected free of connective tissue; from tissue; host or cells: isolated external jugular vein of male Wistar rats
Nature of the experiment: Apparent antagonist dissociation constant (KB) for 5HT2 receptors: serotonin-induced contraction of isolated jugular vein. On the set-up: species or system rat (male Wistar). The text has this: Male Wistar rats, each weighing from approximately 150 g to about 300 g, were sacrificed and their external jugular veins and thoracic aortas were dissected free of connective tissue, cannulated in situ and placed in a modified Krebs' bicarbonate buffer in a suitable tissue bath. Two L-shaped 30-gauge stainlesssteel hypodermic needles were inserted into each cannula and the dissected vessels gently pushed onto the needles. One needle was attached with thread to a stationary glass rod and the other to the transducer. The modified Krebs' bicarbonate buffer was composed of the following ingredients in millimoles: sodium chloride, 118.2; potassium chloride, 4.6; calcium chloride dihydrate, 1.6; potassium dihydrogenphosphate, 1.2; magnesium sulfate, 1.2; dextrose, 10.0; sodium bicarbonate, 24.8; and water q.s. to 1000 g. The tissue baths were maintained at 37° C. and were aerated with 95% oxygen-5% carbon dioxide. An initial optimum resting force of 1 g and 4 g was applied to the jugular vein and aorta, respectively. Isometric contractions were recorded as changes in grams of force on a Beckman Dynograph with Statham UC-3 transducers and a microscale accessory attachment. Tissues were allowed to equilibrate 1 to 2 hours before exposure to the test compounds. Control responses to serotonin in the jugular vein and to norepinephrine in the aorta were obtained. The vessels were then incubated with appropriate concentrations of the test compound for one hour. Responses to serotonin or to norepinephrine were then repeated in the presence of the antagonist. Contraction to serotonin was evaluated in the jugular vein since this tissue is known to produce marked responses to serotonin in the absence of alpha receptors. See Cohen and Wiley, J. Pharm. Exp. Ther., 205, 400 (1978). Alpha receptor antagonist activity was evaluated in the aorta.
Apparent antagonist dissociation constants were determined for each concentration of antagonist according to the following equation: […]

T1 sequence (P14842 whole entry): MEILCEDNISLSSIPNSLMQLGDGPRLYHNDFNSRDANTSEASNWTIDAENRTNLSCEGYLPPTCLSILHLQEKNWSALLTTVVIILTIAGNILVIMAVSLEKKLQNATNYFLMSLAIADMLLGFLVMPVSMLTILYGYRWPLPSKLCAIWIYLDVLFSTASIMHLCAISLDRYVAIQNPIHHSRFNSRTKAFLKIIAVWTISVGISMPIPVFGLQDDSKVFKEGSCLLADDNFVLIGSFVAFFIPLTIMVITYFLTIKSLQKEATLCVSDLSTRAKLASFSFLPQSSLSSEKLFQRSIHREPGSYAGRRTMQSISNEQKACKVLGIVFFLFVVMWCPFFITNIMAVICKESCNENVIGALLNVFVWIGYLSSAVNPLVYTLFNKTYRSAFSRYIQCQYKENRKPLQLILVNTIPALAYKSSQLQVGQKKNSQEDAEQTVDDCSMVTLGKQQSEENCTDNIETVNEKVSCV

Consider `CC(C)n1cc2c3c(cccc31)[C@H]1C[C@@H](C(=O)OC3CC4CC(O)CC4C3)CN(C)[C@@H]1C2` (stereo partly drawn) [Example 3, Octahydro-5-hydroxy-2-pentalenyl 1-isopropyl-9,10-dihydrolysergate hemihydrate], for which the Kb was 0.631 nM. Regarding `CC(C)n1cc2c3c(cccc31)[C@H]1C[C@@H](C(=O)OC3CCCC4C(O)CCCC34)CN(C)[C@@H]1C2` (stereo partly drawn) [Example 1, Decahydro-t-hydroxy-1-naphthalenyl 1-isopropyl-9,10-dihydrolysergate maleate], the Kb (rat jugular vein, contraction to serotonin, 1 hour incubation with test compound, 37° C., average of the number of trials, read-out: log KB ± standard error (-log KB, serotonin receptor activity) (converted)) was 0.224 nM.

Turning to `CC(C)n1cc2c3c(cccc31)[C@H]1C[C@@H](C(=O)OC3CCC4CCCCC4C3)CN(C)[C@@H]1C2` (stereo partly drawn) [Example 2, Decahydro-2-naphthalenyl 1-isopropyl-9,10-dihydrolysergate maleate], the Kb is below 100 nM.
